{"source": "patent US9896512B2", "about": "“Antitumor peptide derived from a complementarity determining region of a humanized monoclonal antibody to NAP12B transporter” (Recepta Biopharma S.A., priority 2010, dated 2018)", "key": {"[1]": {"tested_on": "B16F10-Nex2 melanoma cells", "assay": "In vivo protection against lung colonization (metastatic melanoma model)", "parameters": "species or system C57B1/6 mice", "settings": "250 μg i.p. on days 1, 3, 5, 7, 9, 11; lungs after 22 days", "method": "(§1) Details of the in vitro tumor cell growth, cytotoxicity tests, determination of viable cells and in vivo protection experiments with B16F10 cells in a mouse metastatic model are described in Polonelli et al. (PLoS One. 3(6):e2371, 2008) and Dobroff et al. (Translat. Onc., 3: 204-217, 2010).\nPeptides RB9 and RB10 along with the apoptotic peptide A4H3, a true microantibody of cytotoxic anti-melanoma mAb (A4) (Dobroff et al., Translat. Onc., 3: 204-217, 2010), were tested for their protective effects against lung colonization by B16F10-Nex2 melanoma cells (2×105) injected intravenously in C57B1/6 mice (6 animals/group). Peptides were intraperitoneally administered (250 μg i.p.) on days 1, 3, 5, 7, 9, 11 after tumor cell challenge. Lungs of peptide-treated animals are shown in FIG. 5 after 22 days of tumor challenge. As noticed, peptide treatment was interrupted 10 days before animal sacrifice.\nIn vivo protection by peptides RB9 and RB10 (and A4H3 control) against lung colonization by B16F10-Nex2 melanoma cells (2×105) injected intravenously in C57B1/6 mice (6 animals/group) is shown in FIG. 6. The other 5 CDRs of RebMab200 (SEQ ID NOs: 7, 10, 11, 12, 13) were unprotective in vivo. Peptides were administered in the same way as described above, and the number of lung nodules was determined."}, "tumor cells [2]": {"tested_on": "tumor cells", "assay": "Antitumor activity of RebMab 200 CDR peptides", "format": "cell-based", "from_the_text": "as §1\nAmidated RebMab 200 CDR H2 (SEQ ID NO: 7) shares up to sixteen (16) identical amino acids with similar H2 fragments from several murine antibodies of various specificities."}, "[3]": {"tested_on": "B16F10-Nex2 melanoma cells", "assay": "Cell migration, wound healing assay", "format": "cell-based, murine", "settings": "peptide 500 μM, 24 hours after wounding", "method": "(§2) For the migration studies, 5×10^5 or 10^6 cells were distributed on 6-well plates and let them to adhere for 2 hours at 37° C./5% CO2. The culture medium was changed and the peptide was added at 500 μM overnight. The cell monolayer was “wounded” with a P1000 tip and incubated for 24 hours. Images of untreated cells (control) and peptide treated cells were captured with a JENOPTIK camera. Cell numbers (nuclei) were determined using the Pixcavator software version 5.0.\nViable B16F10-Nex2 cells (5×105)/well were distributed on a 6-well culture plate and incubated overnight at 37° C. in a humidified chamber with 5% CO2. A P1000 tip was used for wounding the cell monolayer and the image was immediately captured (0 hour) using a camera (Jenoptik) with the software Progres 2.8. After 24 hours a new image of the same field was obtained and recorded (24 hours).\nViable B16F10-Nex2 cells (3×10^5)/well were distributed in a 12-well culture plate and incubated for 4 hours at 37° C. in a humidified chamber with 5% CO2. Fresh medium containing RB10 (SEQ ID NO: 9) at different concentrations was added to the wells and incubated again for 4 hours. The monolayer wounding was performed as described above in Example 12, and images obtained accordingly. After 24 hours a new image in the same field was obtained and recorded (24 hours). […] Magnification ×100."}, "[4]": {"tested_on": "human cervix cancer HeLa cells", "assay": "Cell migration, wound healing assay", "format": "cell-based", "settings": "peptide 500 μM, 24 hours", "method": "as §2"}, "[5]": {"tested_on": "human cervix cancer SiHa cells", "assay": "Cell migration, wound healing assay", "format": "cell-based", "settings": "peptide 500 μM, 24 hours", "method": "as §2"}, "[6]": {"tested_on": "human glioblastoma U87 cells", "assay": "Cell migration, wound healing assay", "format": "cell-based", "settings": "peptide 500 μM, 24 hours", "method": "as §2"}, "tumor cells [7]": {"tested_on": "tumor cells", "assay": "Cell adherence assay (detachment with trypsin/EDTA)", "format": "cell-based", "method": "At a lower dose, cells would be detached with trypsin/EDTA at rates inversely proportional to the peptide concentration. Conceivably, peptides RB9 and RB10 affected the cytoskeleton dynamics of cells, thus signaling increased cell adhesion.\nB16F10-Nex2.1 cells (5×10^3) and U87-MG cells (1×10^4) were cultivated in 96-well plates and incubated with different concentrations of RB9 (SEQ ID NO: 8) and RB10 (SEQ ID NO: 9) from 0.01 to 1 mM (i.e., 0.01, 0.05, 0.1, 0.25, 0.7, 0.8 and 1 mM of RB9 and RB10 for B16F10-Nex 2.1 cells; and 0.25, 0.5, 0.75 and 1 mM of RB9 and RB10 for U87-MG cells). After 18 hours incubation, viable cells detached with trypsin/EDTA were counted using Trypan blue exclusion staining. All assays were performed in triplicate in two independent experiments.\nSKBR3 cells (1×10^4) were cultivated in 96-well plates and incubated with RB9 (SEQ ID NO: 8) and RB10 (SEQ ID NO: 9). After 18 hours incubation, viable cells detached with trypsin/EDTA were counted using Trypan blue exclusion staining. Assays were performed in triplicate in two independent experiments. The A2058 human melanoma cells (1×10^4) were incubated for 4 hours at 37° C. in a humidified chamber with 5% CO2. Fresh media containing different peptide concentrations of RB9 and RB10 ranging from 0 to 1 mM (i.e., 0, 0.25, 0.5 and 1 mM) was added to the wells and incubated for 24 hours. The media was then aspirated, cells were detached with 30 μl/well of trypsin-EDTA for five minutes at 37° C. and viable cells were counted in a Neubauer chamber using Trypan blue. As shown in FIGS. 2A-2D, 50% of cells were trypsin-EDTA resistant at 630 and 610 μM RB9 and RB10, respectively."}, "[8]": {"tested_on": "melanoma B16F10-Nex2 cells", "assay": "Alanine scanning series cell adhesion assay (MTT after trypsin-EDTA)", "format": "cell-based, murine", "settings": "1 mM peptide, 24 hours", "method": "The peptide RB10 (SEQ ID NO: 9) was engineered to replace each amino acid by alanine using Ala-scan methodology, and thus help evaluate the role of each amino acid on biological effect, specifically on the hyper-adherence observed with 1 mM peptide.\nFor this purpose, viable melanoma B16F10-Nex2 cells (1×10^4)/well were distributed on a 96-well culture plate and incubated for 4 hours. Fresh media containing 1 mM of the alanine-scanning series for RB10 was added and incubated for 24 hours. Treated cells were detached with 30 μl/well of trypsin-EDTA for five minutes at 37° C. and gently washed with PBS. Cells were incubated for 4 hours with 0.5 mg/mL of MTT [3-(4,5-Dimethylthiazol-2-yl)-2,5-diphenyltetrazolium bromide] in fresh media and the formazan crystals were solubilized adding 1 volume of a 10% SDS solution overnight. Intensity was measured using a plate reader at 570 nm. […] The 100% value for each peptide represented the treated cells that had not been trypsinized."}, "[9]": {"assay": "Peptide degradation by human plasma (HPLC / mass spectrum)", "format": "in vitro ADME", "settings": "human plasma, 37° C.", "method": "Peptides have variable half lives in the plasma due to the proteolytic activity and the renal filtration, which are relevant aspects in the pharmacokinetics of drug candidates.\nTo analyze the peptide in HPLC and Mass Spectrum, an aliquot of 200 μL was transferred to a new Eppendorf tube and proteins were precipitated with 20 μL trifluoroacetic acid for 5 minutes at 4° C. After centrifugation for 10 minutes at 14,000 rpm, the supernatant was analyzed in an LC/ESI-MS (Waters).\nRegarding assays for determining time-lapse plasma degradation of RB9 peptide, peptide degradation by human plasma was monitored in HPLC and Mass spectra every 30 minutes as described above (FIG. 12). About 50% RB9 was cleaved after 2 hours of incubation at 37° C."}}, "note": "Like-named read-outs stand apart in the source and are kept apart here. Non-standard residues stand in square brackets, D forms with d. Residues, ends and D or L forms follow the SMILES beside them. No end group written: not given here."}
{"compound": "YTSSLYS-NH2 [RB13]", "values": [{"measurement": "protection against lung colonization (lung nodules)", "setting": "[1]", "result": "unprotective"}, {"measurement": "antitumor activity", "setting": "tumor cells [2]", "result": "no antitumor activity"}]}
{"compound": "GYTFTGYNIH-NH2 [RB11]", "values": [{"measurement": "protection against lung colonization (lung nodules)", "setting": "[1]", "result": "unprotective"}, {"measurement": "antitumor activity", "setting": "tumor cells [2]", "result": "no antitumor activity"}]}
{"compound": "C[C@H](NC(=O)[C@H](CCCNC(=N)N)NC(=O)[C@H](C)NC(=O)[C@@H](NC(=O)[C@H](CCC(=O)O)NC(=O)CNC(=O)[C@H](CCCNC(=N)N)NC(=O)[C@@H](C)NC(=O)[C@@H](N)CS)[C@@H](C)O)C(=O)N[C@H](C(=O)N[C@@H](Cc1ccccc1)C(=O)N[C@@H](C)C(=O)N[C@@H](Cc1ccc(O)cc1)C(=O)N[C@@H](Cc1c[nH]c2ccccc12)C(=O)NCC(=O)N[C@@H](CCC(N)=O)C(=O)NCC(N)=O)[C@@H](C)O", "note": "[RB10 M3, C(dA)RGETARATFAYWGQG-NH2] (H-C[dA]RGETARATFAYWGQG-NH2; N-terminus assumed)", "values": [{"measurement": "inhibition of cell migration (words)", "setting": "[3]", "result": "complete inhibition"}, {"measurement": "inhibition of cell migration (words)", "setting": "[3]; listed as RB10M3", "result": "Total inhibition"}, {"measurement": "inhibition of cell migration", "setting": "[4]", "result": "almost complete inhibition"}, {"measurement": "inhibition of cell migration", "setting": "[4]; listed as RB10M3", "result": "complete or almost complete inhibition"}, {"measurement": "inhibition of cell migration", "setting": "[5]", "result": "almost complete inhibition"}, {"measurement": "inhibition of cell migration", "setting": "[5]; listed as RB10M3", "result": "complete or almost complete inhibition"}, {"measurement": "inhibition of cell migration", "setting": "[6]", "result": "partial inhibition"}, {"measurement": "inhibition of cell migration", "setting": "[6]; listed as RB10M3", "result": "partial migration inhibition"}]}
{"compound": "CARGETARATFAYWGQG (Sequence of CDR H3 from RebMab 200 (huMX35), obtainable by a known method) [RB10a]", "values": [{"measurement": "adherence at peptide concentration of 1 mM (not suspended by trypsin/EDTA)", "setting": "tumor cells [7]; 1 mM peptide", "result": "hyper-adherence"}, {"measurement": "adherence of tumor cells to the substrate", "setting": "tumor cells [7]; 96-well plates, RPMI 10% FCS, seen in B16F10-Nex2.1, U87MG, A5028 melanoma, SKBR3, SiHa, HCT cells", "result": "dose dependent increase of adherence"}, {"measurement": "trypsin/EDTA-resistant cell adherence", "setting": "[8]", "result": "high trypsin/EDTA-resistant cell adherence"}, {"measurement": "antitumor activity", "setting": "tumor cells [2]", "result": "antitumor effects"}]}
{"compound": "QQYSKLPLT-NH2 [RB14]", "values": [{"measurement": "protection against lung colonization (lung nodules)", "setting": "[1]", "result": "unprotective"}, {"measurement": "antitumor activity", "setting": "tumor cells [2]", "result": "no antitumor activity"}]}
{"compound": "SASQDIGNFLN-NH2 [RB12]", "values": [{"measurement": "protection against lung colonization (lung nodules)", "setting": "[1]", "result": "unprotective"}, {"measurement": "antitumor activity", "setting": "tumor cells [2]", "result": "no antitumor activity"}]}
{"compound": "AIYPGNGDTSYKQKFRG-NH2 [RB8, AIYPGNGDTSYKQKFRG-NH2]", "values": [{"measurement": "protection against lung colonization (lung nodules)", "setting": "[1]", "result": "unprotective"}, {"measurement": "half-life", "setting": "[9]", "result": "< 1", "unit": "h"}, {"measurement": "antitumor activity", "setting": "tumor cells [2]; listed as RBB", "result": "no antitumor activity"}, {"measurement": "antitumor activity", "setting": "tumor cells [2]; listed as SEQ ID NO: 7", "result": "no antitumor effect"}]}
